Patent US7666354B2, “Composition for sterilization comprising ω-alkoxyperoxycarboxylic acid” (FUJIFILM Corporation, priority 2004, dated 2010)
Where two headings read alike, the source gives them in different places.

Legend:
[1] = Stability Evaluation 1: peracid concentration after mixing carboxylic acid and 50% aqueous hydrogen peroxide (potassium iodide/sodium thiosulfate titration); format: physicochemical; conditions: for peracid concentration in composition, 3 days after mixing: day 3; for peracid concentration in composition, 6 days after mixing: day 6; for peracid concentration in composition, 22 days after mixing: day 22
From the text: A carboxylic acid (30 mmol) and 50% aqueous hydrogen peroxide (45 mmol) were mixed, and concentration of generated peracid was quantified by potassium iodide/sodium thiosulfate titration as described in Example 1 at a constant time interval. As the carboxylic acid, 3-methoxypropionic acid and 3-ethoxypropionic acid were used. As a control for comparison, methoxyacetic acid was used.
Numbers in Table 3 indicates peracid concentration (mM) in compositions.

[2] = cited from earlier work
[3] = tested on: Spores of Bacillus subtilis IFO3134; experiment: Evaluation of antimicrobial activity against spores (liquid culture and agar culture after a given reaction time); format: cell-based; conditions: for colony formation, 15 sec / colony formation, 1 min / colony formation, 5 min: Agar culture; for colony formation, 15 sec / bacterial proliferation, 15 sec: reaction time 15 sec; for colony formation, 1 min / bacterial proliferation, 1 min: reaction time 1 min; for colony formation, 5 min / bacterial proliferation, 5 min: reaction time 5 min; for bacterial proliferation, 15 sec / bacterial proliferation, 1 min / bacterial proliferation, 5 min: Liquid culture
Description: Antimicrobial activity of the composition of the present invention against spores was evaluated.
Spores of Bacillus subtilis IFO3134 was prepared based on the preparation method of a spores stock solution described in Notification from Ministry of Health, Labour and Welfare, “Ei-nyu(Milk Hygiene)” No. 10, Jan. 29, 1996 (Heisei 8). […] The bacteria were suspended in sterilized water (3 ml), and the suspension was heated at 65° C. for 30 minutes under shaking at 160 rpm to kill trophozoites. Resulting suspension was centrifuged at 3000 rpm, and the supernatant was discarded. Sterilized water (3 ml) was added to the residue to obtain a stock solution of spores. A solution of 1.1×10^9 cfu/mL was prepared using the stock solution and subjected to the following evaluations of antimicrobial activity.
Evaluation of antimicrobial activity was conducted according to the method of Sakagami et al. (J. Antibact. Antifung. Agents., Vol. 26, 605-601, 1998). Specifically, an aqueous solution (225 μl) of each sample which was filtered with 0.2 μm paper filter was added with spores suspension (25 μl) prepared by the above described method. The mixture (concentration of bacteria: 1.1×10^8 cfu/mL) was reacted for a given period of time. From the reaction solution, 2 μL sample was corrected and added to 2 ml of SCDLP culture medium (Nissui Pharmaceutical Co., Ltd.). The medium was cultured at 37° C. under shaking at 160 rpm for 48 hours, and the presence of bacterial growth was examined. At the same time, the reaction solution (25 μL) was added to a mixture solution (225 μL) of 0.1N sodium thiosulfate and 1% catalase to inactivate a peroxycarboxylic acid and hydrogen peroxide. Resulting solution (100 μL) was inoculated to SCDLP culture agar medium (Nissui Pharmaceutical Co., Ltd., 25 mL/petri dish). The medium was cultured at 37° C. for 48 hours, and examined visually for colony formation.
Each solution prepared in Example 1, 2, 3-c, 3-f, and 3-j was diluted with distilled water for injection (Hikari pharmaceutical company) so as to obtain a solution of peroxycarboxylic acid at a concentration of 40 mM, which was used as composition 1, 2, 3, 24, and 28. The compositions were evaluated for their antimicrobial activity using the above described method. Aqueous hydrogen peroxide which contains hydrogen peroxide at a higher concentration than the hydrogen peroxide concentration of the above diluted solutions was separately evaluated in a similar manner, and results are also shown in Table 1.

[4] = Stability Evaluation 2: pH dependency of peroxycarboxylic acid concentration; format: physicochemical; conditions: 80 mM solution, FIG. 1
Description: A aqueous composition of the peroxycarboxylic acid which was obtained in the above described Synthesis of compound 3 (1.6 M, 100 ml) was diluted by addition of water (50 ml), and the mixture was left at 25° C. for 7 days. Quantification was conducted by potassium iodide/sodium thiosulfate titration as described in Example 1.
The aqueous composition was diluted with water to adjust the peroxycarboxylic acid concentration at 80 mM. Three solutions of pH 1.7, 3.0, and 5.0 were prepared, and peroxycarboxylic acid concentration was quantified by potassium iodide/sodium thiosulfate titration as described in Example 1 at a constant time intervals. The pH was adjusted by addition of dipotassium hydrogen phosphate. Assuming that peroxycarboxylic acid concentration of 80 mM is 100%, changes in peroxycarboxylic acid concentration are shown in FIG. 1.

[5] = Judgment whether the composition meets the criteria of the fifth class of hazardous material in the Fire Defense Law (thermal analysis, pressure container test); conditions: aqueous composition: Compound 3 7% w/w, hydrogen peroxide 13% w/w, 3-propoxypropionic acid 32% w/w, water 48% w/w
Description: A aqueous composition of the peroxycarboxylic acid which was obtained in the above described Synthesis of compound 3 (1.6 M, 100 ml) was mixed with water (50 ml) for dilution, and the mixture was left at 25° C. for 14 days. The solution was further kept at 4° C. for 10 days. Quantification was conducted by potassium iodide/sodium thiosulfate titration as described in Example 1.
The above aqueous composition was subjected to judgment whether or not the composition meets the criteria of the fifth class of hazardous material in the Fire Defense Law.

[6] = tested on: spores; conditions: recently reported; cited from earlier work
[7] = tested on: Spores of Bacillus subtilis IFO3134; experiment: Evaluation of antimicrobial activity against spores (liquid culture and agar culture after a given reaction time); format: cell-based; conditions: Table 2, Acecide, 40 mM peracetic acid
[8] = carboxylic acid 30 mmol + 50% aqueous hydrogen peroxide 45 mmol
[9] = Table 2, Acecide, 40 mM peracetic acid

COCC(=O)OO [peroxy-methoxyacetic acid, reference compound]
stability: change of peracid concentration with passage of time (in words) [1]: unstable | peracid concentration in composition, 3 days after mixing [1, 8]: 530 mM | peracid concentration in composition, 6 days after mixing [1, 8]: 540 mM | peracid concentration in composition, 10 days after mixing ([1]; carboxylic acid 30 mmol + 50% aqueous hydrogen peroxide 45 mmol, day 10): 380 mM | peracid concentration in composition, 14 days after mixing ([1]; carboxylic acid 30 mmol + 50% aqueous hydrogen peroxide 45 mmol, day 14): 340 mM | peracid concentration in composition, 24 days after mixing ([1]; carboxylic acid 30 mmol + 50% aqueous hydrogen peroxide 45 mmol, day 24): 210 mM | antibacterial effect compared with peracetic acid ([2]; J. Molecular Catalysis B: Enzymatic, 19-20, pp. 499-505 (2002)): weaker antibacterial effect than that of peracetic acid

CCOCCCC(=O)OO [Compound 24]
colony formation, 15 sec ([3]; peroxycarboxylic acid 40 mM): + | colony formation, 1 min ([3]; peroxycarboxylic acid 40 mM): + | colony formation, 5 min ([3]; peroxycarboxylic acid 40 mM): − | bacterial proliferation, 15 sec ([3]; peroxycarboxylic acid 40 mM): + | bacterial proliferation, 1 min ([3]; peroxycarboxylic acid 40 mM): + | bacterial proliferation, 5 min ([3]; peroxycarboxylic acid 40 mM): −

COCCC(=O)OO [Compound 1, 3-methoxyperoxypropionic acid]
colony formation, 15 sec ([3]; peroxycarboxylic acid 40 mM): + | colony formation, 1 min ([3]; peroxycarboxylic acid 40 mM): + | colony formation, 5 min ([3]; peroxycarboxylic acid 40 mM): − | bacterial proliferation, 15 sec ([3]; peroxycarboxylic acid 40 mM): + | bacterial proliferation, 1 min ([3]; peroxycarboxylic acid 40 mM): + | bacterial proliferation, 5 min ([3]; peroxycarboxylic acid 40 mM): − | peracid concentration in composition, 3 days after mixing [1, 8]: 160 mM | peracid concentration in composition, 5 days after mixing ([1]; carboxylic acid 30 mmol + 50% aqueous hydrogen peroxide 45 mmol, day 5): 250 mM | peracid concentration in composition, 22 days after mixing [1, 8]: 650 mM | stability: change of peracid concentration with passage of time (in words) ([1]; summary of Table 3): any decrease in peracid amount was not observed

CCCOCCC(=O)OO [Compound 3, peroxy-3-propoxypropionic acid]
colony formation, 15 sec ([3]; peroxycarboxylic acid 40 mM): + | colony formation, 1 min ([3]; peroxycarboxylic acid 40 mM): + | bacterial proliferation, 15 sec ([3]; peroxycarboxylic acid 40 mM): + | bacterial proliferation, 1 min ([3]; peroxycarboxylic acid 40 mM): + | bacterial proliferation, 5 min ([3]; peroxycarboxylic acid 40 mM): − | change in peroxycarboxylic acid concentration (storage stability), pH lower than 2 ([4]; pH 1.7): a decrease in peroxycarboxylic acid concentration was faster | storage stability, pH 3.0 ([4]; pH 3.0): significantly high storage stability | change in peroxycarboxylic acid concentration (storage stability), pH 5 or higher ([4]; pH 5.0): a decrease in peroxycarboxylic acid concentration was faster | classification as fifth class of hazardous material in the Fire Defense Law [5]: did not classified in the fifth class of hazardous material | pressure container test result [5]: rank 3 | thermal analysis result [5]: no hazardous

O=C(CCOCCO)OO [reference compound]
antimicrobial activity compared with Composition 1, Composition 2 ([3]; evaluated in a similar manner to Example 4): lower than that of Composition 1, Composition 2 or the like

OO [Hydrogen peroxide, reference compound]
colony formation, 15 sec ([3]; hydrogen peroxide 2000 mM): + | colony formation, 1 min ([3]; hydrogen peroxide 2000 mM): + | colony formation, 5 min ([3]; hydrogen peroxide 2000 mM): + | bacterial proliferation, 15 sec ([3]; hydrogen peroxide 2000 mM): + | bacterial proliferation, 1 min ([3]; hydrogen peroxide 2000 mM): + | bacterial proliferation, 5 min ([3]; hydrogen peroxide 2000 mM): +

O=CCCCC=O [glutaraldehyde]
sterilizing effect to spores [6]: weak sterilizing effect to spores

O=C(CCOCCCl)OO [Compound 28]
colony formation, 15 sec ([3]; peroxycarboxylic acid 40 mM): + | colony formation, 1 min ([3]; peroxycarboxylic acid 40 mM): + | colony formation, 5 min ([3]; peroxycarboxylic acid 40 mM): − | bacterial proliferation, 15 sec ([3]; peroxycarboxylic acid 40 mM): + | bacterial proliferation, 1 min ([3]; peroxycarboxylic acid 40 mM): + | bacterial proliferation, 5 min ([3]; peroxycarboxylic acid 40 mM): −

CC(=O)OO [peracetic acid]
colony formation, 15 sec [3, 9]: + | bacterial proliferation, 15 sec [3, 9]: + | colony formation, 1 min ([7]; Agar culture, reaction time 1 min): + | colony formation, 5 min ([7]; Agar culture, reaction time 5 min): − | bacterial proliferation, 1 min ([7]; Liquid culture, reaction time 1 min): + | bacterial proliferation, 5 min ([7]; Liquid culture, reaction time 5 min): −

CCOCCC(=O)OO [Compound 2, 3-ethoxyperoxypropionic acid]
colony formation, 15 sec ([3]; peroxycarboxylic acid 40 mM): + | colony formation, 1 min ([3]; peroxycarboxylic acid 40 mM): + | colony formation, 5 min ([3]; peroxycarboxylic acid 40 mM): − | bacterial proliferation, 15 sec ([3]; peroxycarboxylic acid 40 mM): + | bacterial proliferation, 1 min ([3]; peroxycarboxylic acid 40 mM): + | bacterial proliferation, 5 min ([3]; peroxycarboxylic acid 40 mM): − | stability: change of peracid concentration with passage of time (in words) [1]: any decrease in peracid amount was not observed | peracid concentration in composition, 3 days after mixing [1, 8]: 160 mM | peracid concentration in composition, 6 days after mixing [1, 8]: 310 mM | peracid concentration in composition, 22 days after mixing [1, 8]: 700 mM

CCC(=O)OO [peroxypropionic acid]
sterilizing action ([2]; J. Hyg. Epid. Microbiol. Immun., 9, pp. 220-226 (1965)): effective sterilizing action
